Experimental findings from patent US20250340551A1, “SMALL MOLECULE MODULATORS OF STAT6” (Gilead Sciences, Inc., priority 2024, published 2025) are described below.

Chain of human STAT6 (P42226 122-658): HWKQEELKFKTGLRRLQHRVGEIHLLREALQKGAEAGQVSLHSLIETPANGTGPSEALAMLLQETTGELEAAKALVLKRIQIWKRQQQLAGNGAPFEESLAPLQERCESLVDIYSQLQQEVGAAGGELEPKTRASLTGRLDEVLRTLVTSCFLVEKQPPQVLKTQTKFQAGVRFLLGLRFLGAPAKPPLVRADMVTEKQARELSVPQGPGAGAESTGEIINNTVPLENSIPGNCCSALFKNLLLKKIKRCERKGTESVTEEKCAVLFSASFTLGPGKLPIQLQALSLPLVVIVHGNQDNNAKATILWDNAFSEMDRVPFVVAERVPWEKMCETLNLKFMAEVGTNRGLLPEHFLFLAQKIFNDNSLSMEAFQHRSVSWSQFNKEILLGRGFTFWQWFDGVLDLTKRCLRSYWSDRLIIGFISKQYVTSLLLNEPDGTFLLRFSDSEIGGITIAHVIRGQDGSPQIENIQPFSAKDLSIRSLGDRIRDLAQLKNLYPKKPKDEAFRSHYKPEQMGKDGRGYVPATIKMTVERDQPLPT

For the test, the target named is human STAT6 (Homo sapiens (Human), UniProt P42226). The test can be described thus: Surface plasmon resonance assay (Biacore 8K, binding to immobilized STAT6). Conditions: human STAT6 aa122-658, N-terminal His-tag, CM5 chip, 25° C.; geometric mean; read-out: STAT6 SPR Kd. The method, then:
Biacore instruments from the 8K-series (Cytiva) were used, and measurements were performed at 25° C. Human STAT6 (truncated, aa122-658, with N-terminal His-tag, expressed in insect cells) was immobilized in the active flow cells on a CM5 chip using amine-coupling (default settings) at 10 μg/ml in 10 mM acetate buffer pH 5.5, at a contact time of 120-420 sec. and a flow rate of 10 μl/min. Reference flow cells were deactivated using blank immobilization. PBS-P+ (Cytiva) supplemented with 2% DMSO was used as running buffer, and solvent correction was applied. Compounds were tested by multi-cycle kinetics injections using a contact time of 60 sec., dissociation time of up to 300 sec., and a flow rate of 30 μl/min.
Solvent-corrected, reference-subtracted and blank-corrected data was processed and binding isotherms were fitted according to a single report point from each sensorgram (Standard: Late binding (5 sec. before injection end); alternative: Earlier report point according to binding profile). Data fitting was done both with unfixed Rmax and with Rmax fixed to the theoretical value* assuming 1:1 binding to allow processing of data from both weak and strong binders as well as to evaluate binding stoichiometry.
Positive controls were run at the beginning, during, and at the end of the screen to evaluate surface activity.
Consider `CN(C)C(=O)c1ccc(C2CCN(Cc3cc4c(-c5cnc(N)nn5)ccnc4n3C)CC2)cc1` [Example 1k54, 4-[1-[[4-(3-Amino-1,2,4-triazin-6-yl)-1-methyl-pyrrolo[2,3-b]pyridin-2-yl]methyl]-4-piperidyl]-N,N-dimethyl-benzamide], for which the Kd – broadly, the constant that tells how readily two partners part at equilibrium – is 104 nM.

Turning to `CN(C)C(=O)c1ccc(C2CCN(Cc3cc4c(-c5cnc(N)cn5)ccnc4n3C)CC2)cc1` [Example 1k8, 4-[1-[[4-(5-Aminopyrazin-2-yl)-1-methyl-pyrrolo[2,3-b]pyridin-2-yl]methyl]-4-piperidyl]-N,N-dimethyl-benzamide], the Kd came to 457 nM.

On to `Cc1cc(N)ncc1-c1ccnc2c1cc(CN1CCC(c3ccc(C(=O)N(C)C)cc3)CC1)n2C` [Example 1k30, 4-[1-[[4-(6-Amino-4-methyl-3-pyridyl)-1-methyl-pyrrolo[2,3-b]pyridin-2-yl]methyl]-4-piperidyl]-N,N-dimethyl-benzamide], for which the Kd came to 62.1 nM.

For `COc1cc(-c2ccnc3c2cc(CN2CCC(c4ccc(C(=O)N(C)C)cc4)CC2)n3C)c(C)nc1N` [Example 1k33, 4-[1-[[4-(6-Amino-5-methoxy-2-methyl-3-pyridyl)-1-methyl-pyrrolo[2,3-b]pyridin-2-yl]methyl]-4-piperidyl]-N,N-dimethyl-benzamide], the Kd was found to be 2770 nM.

`CN(C)C(=O)c1ccc(C2CCN(Cc3cc4c(-c5cnc(N)c(C#N)n5)ccnc4n3C)CC2)cc1` [Example 1k57, 4-[1-[[4-(5-Amino-6-cyano-pyrazin-2-yl)-1-methyl-pyrrolo[2,3-b]pyridin-2-yl]methyl]-4-piperidyl]-N,N-dimethyl-benzamide]: the Kd turned out to be 766 nM.

In the case of `COC(=O)c1cc(-c2ccnc3c2cc(CN2CCC(c4ccc(C(=O)N(C)C)cc4)CC2)n3C)cnc1N` [Example 1k10, Methyl 2-amino-5-[2-[[4-[4-(dimethylcarbamoyl)phenyl]-1-piperidyl]methyl]-1-methyl-pyrrolo[2,3-b]pyridin-4-yl]pyridine-3-carboxylate], the Kd is 2630 nM.

Consider `[2H]C([2H])([2H])N(C(=O)c1ccc(C2CCN(Cc3cc4c(-c5ccc(NC)nc5)ccnc4n3C)CC2)cc1)C([2H])([2H])[2H]` [Example 1k38, 4-[1-[[1-Methyl-4-[6-(methylamino)-3-pyridyl]pyrrolo[2,3-b]pyridin-2-yl]methyl]-4-piperidyl]-N,N-bis(trideuteriomethyl)benzamide], for which the Kd turned out to be 27.7 nM.

Regarding `CN(C)C(=O)c1ccc(C2CCN(Cc3cc4c(-c5ccc(N)nc5)ccnc4n3C)C(=O)C2)cc1` (single isomer, unassigned) [Example 1ae5], the Kd was found to be 46.4 nM.

On to `[2H]C([2H])([2H])N(C(=O)c1ccc(C2CCN(Cc3cc4c(-c5ccc(N)nc5OC)ccnc4n3C)CC2)cc1)C([2H])([2H])[2H]` [Example 1k23, 4-[1-[[4-(6-Amino-2-methoxy-3-pyridyl)-1-methyl-pyrrolo[2,3-b]pyridin-2-yl]methyl]-4-piperidyl]-N,N-bis(trideuteriomethyl)benzamide], for which the Kd was 25.5 nM.

For `CN(C)C(=O)c1ccc(C2CCN(Cc3cc4c(-c5cnc(N)c(CO)c5)ccnc4n3C)CC2)cc1` [Example 1k34, 4-[1-[[4-[6-Amino-5-(hydroxymethyl)-3-pyridyl]-1-methyl-pyrrolo[2,3-b]pyridin-2-yl]methyl]-4-piperidyl]-N,N-dimethyl-benzamide], the Kd came out at 245 nM.

With `COC(=O)CNc1ccc(-c2ccnc3c2cc(CN2CCC(c4ccc(C(=O)N(C)C)cc4)CC2)n3C)cn1` [Example 1k26, Methyl 2-[[5-[2-[[4-[4-(dimethylcarbamoyl)phenyl]-1-piperidyl]methyl]-1-methyl-pyrrolo[2,3-b]pyridin-4-yl]-2-pyridyl]amino]acetate], the dissociation constant (Kd) stood at 16.8 nM.

`Cc1nc(-c2ccnc3c2cc(CN2CCC(c4ccc(C(=O)N(C)C)cc4)CC2)n3C)cnc1N` [Example 1k20, 4-[1-[[4-(5-Amino-6-methyl-pyrazin-2-yl)-1-methyl-pyrrolo[2,3-b]pyridin-2-yl]methyl]-4-piperidyl]-N,N-dimethyl-benzamide]: the Kd came out at 1510 nM.

Take `CN(C)C(=O)c1ccc(C2CCN(Cc3cc4c(-c5cnc(N)c(C(F)F)c5)ccnc4n3C)CC2)cc1` [Example 1k24, 4-[1-[[4-[6-Amino-5-(difluoromethyl)-3-pyridyl]-1-methyl-pyrrolo[2,3-b]pyridin-2-yl]methyl]-4-piperidyl]-N,N-dimethyl-benzamide]: the Kd turned out to be 336 nM.

As to `CN(C)C(=O)c1ccc(C2CCN(Cc3cc4c(-c5cnc(N)cc5C(F)(F)F)ccnc4n3C)CC2)cc1` [Example 1k27, 4-[1-[[4-[6-Amino-4-(trifluoromethyl)-3-pyridyl]-1-methyl-pyrrolo[2,3-b]pyridin-2-yl]methyl]-4-piperidyl]-N,N-dimethyl-benzamide], the Kd came out at 5030 nM.

In the case of `CNc1ccc(-c2ccnc3c2cc(CN2CC[C@H](c4ccc(C(=O)N(C)C)cc4)[C@@H](F)C2)n3C)cn1` (single isomer, unassigned) [Example 1s24], the Kd amounted to 36.7 nM.

Regarding `CNc1ccc(-c2ccnc3c2cc(CN2CCC(c4ccc(C(=O)N(C)C)cc4)CC2)n3CC(C)(C)C)cn1` [Example 1x3, 4-[1-[[1-(2,2-Dimethylpropyl)-4-[6-(methylamino)-3-pyridyl]pyrrolo[2,3-b]pyridin-2-yl]methyl]-4-piperidyl]-N,N-dimethyl-benzamide], the Kd stood at 5280 nM.

As for `[2H]C([2H])([2H])N(C(=O)c1ccc(C2=CCN([C@@H](C)c3cc4c(-c5ccc(N)cn5)ccnc4n3C)CC2)cc1)C([2H])([2H])[2H]` [Example 1af43, (S)-4-(1-(1-(4-(5-Aminopyridin-2-yl)-1-methyl-1H-pyrrolo[2,3-b]pyridin-2-yl)ethyl)-1,2,3,6-tetrahydropyridin-4-yl)-N,N-bis(methyl-d3)benzamide], the Kd was found to be 2950 nM.

Take `[2H]C([2H])([2H])N(C(=O)c1ccc(C2=CCN(C(C)c3cc4c(-c5ccc(N)nc5C#N)ccnc4n3C)CC2)cc1)C([2H])([2H])[2H]` (stereo in doubt) [Example 1af24, (S)-4-(1-(1-(4-(6-amino-2-cyanopyridin-3-yl)-1-methyl-1H-pyrrolo[2,3-b]pyridin-2-yl)ethyl)-1,2,3,6-tetrahydropyridin-4-yl)-N,N-bis(methyl-d3)benzamide]: the Kd amounted to 51.3 nM.

Turning to `Cc1c(-c2ccnc3c2cc(CN2CCC(c4ccc(C(=O)N(C)C)cc4)CC2)n3C)cnc(N)c1C#N` [Example 1k42, 4-[1-[[4-(6-Amino-5-cyano-4-methyl-3-pyridyl)-1-methyl-pyrrolo[2,3-b]pyridin-2-yl]methyl]-4-piperidyl]-N,N-dimethyl-benzamide], the Kd worked out at 731 nM.

`[2H]C([2H])([2H])N(C(=O)c1ccc(C2=CCN(C(C)c3cc4c(-c5ccc(N)nc5C#N)ccnc4n3C)CC2)cc1)C([2H])([2H])[2H]` (stereo in doubt) [Example 1af22, (R)-4-(1-(1-(4-(6-Amino-2-cyanopyridin-3-yl)-1-methyl-1H-pyrrolo[2,3-b]pyridin-2-yl)ethyl)-1,2,3,6-tetrahydropyridin-4-yl)-N,N-bis(methyl-d3)benzamide]: the Kd turned out to be 6600 nM.

`CCOC(=O)c1nc(-c2ccnc3c2cc(CN2CCC(c4ccc(C(=O)N(C)C)cc4)CC2)n3C)ccc1N` [Example 1k78, Ethyl 3-amino-6-(2-((4-(4-(dimethylcarbamoyl)phenyl)piperidin-1-yl)methyl)-1-methyl-1H-pyrrolo[2,3-b]pyridin-4-yl)picolinate]: the Kd was 59.3 nM.

For `CNc1ccc(-c2ccnc3c2cc(CN2CCC(n4ccc(C(=O)N(C)C)cc4=O)CC2)n3C)cn1` [Example 1s6, N,N-Dimethyl-1-[1-[[1-methyl-4-[6-(methylamino)-3-pyridyl]pyrrolo[2,3-b]pyridin-2-yl]methyl]-4-piperidyl]-2-oxo-pyridine-4-carboxamide], the Kd amounted to 595 nM.

On to `CNc1ccc(-c2ccnc3c2cc(CN2CCC(c4ccc(C(=O)N(C)C)cc4)CC2=O)n3C)cn1` (stereo in doubt) [Example 1s3, N,N-Dimethyl-4-[(4R)-1-[[1-methyl-4-[6-(methylamino)-3-pyridyl]pyrrolo[2,3-b]pyridin-2-yl]methyl]-2-oxo-4-piperidyl]benzamide], for which the Kd was 23.2 nM.

`CN(C)C(=O)c1ccc(C2CCN(Cc3cc4c(-c5cnc(N)c(N(C)C)c5)ccnc4n3C)CC2)cc1` [Example 1k47, 4-[1-[[4-[6-Amino-5-(dimethylamino)-3-pyridyl]-1-methyl-pyrrolo[2,3-b]pyridin-2-yl]methyl]-4-piperidyl]-N,N-dimethyl-benzamide]: the Kd is 1210 nM.

Take `Cc1cc(N)nc(C)c1-c1ccnc2c1cc(CN1CCC(c3ccc(C(=O)N(C)C)cc3)CC1)n2C` [Example 1k65, 4-[1-[[4-(6-Amino-2,4-dimethyl-3-pyridyl)-1-methyl-pyrrolo[2,3-b]pyridin-2-yl]methyl]-4-piperidyl]-N,N-dimethyl-benzamide]: the dissociation constant (Kd) turned out to be 254 nM.

`CNc1ccc(-c2ccnc3c2cc(CN2CC[C@H](c4ccc(C(=O)N(C)C)cc4)[C@@H](F)C2)n3C)nc1` (stereo in doubt) [Example 1o18, 4-((3R,4R)-3-fluoro-1-((1-methyl-4-(5-(methylamino)pyridin-2-yl)-1H-pyrrolo[2,3-b]pyridin-2-yl)methyl)piperidin-4-yl)-N,N-dimethylbenzamide]: the Kd is 139 nM.
